Data published in the supplement of paper PMC10307832.

Experiments:
Experiment in all cases: relative viability (nuclei count vs DMSO), 5 days (fraction); higher = more cells survive
[1] = compound: C#Cc1cccc(Nc2ncnc3cc(OC)c(OCCCCCCC(=O)NO)cc23)c1 [CUDC-101] + O=C(c1cc(Cc2n[nH]c(=O)c3ccccc23)ccc1F)N1CCN(C(=O)C2CC2)CC1 [Olaparib] (partner 8 µM)
Outline: (§1)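 Values are medians from duplicate plates. Each reflects relative viability, defined as the nuclei count of treated wells over that of vehicle wells. Lung cancer cell lines in 1536-well plates were pin-tool dosed one day after seeding with one drug alone or with a fixed anchor-drug dose plus five library-drug doses (not always all listed) in √10 steps, then fixed, stained and imaged at 4× after 5 days.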

[2] = compound: COc1cc(N2CCC(N3CCN(C)CC3)CC2)ccc1Nc1ncc(Cl)c(Nc2ccccc2S(=O)(=O)C(C)C)n1 [NVP-TAE684] + C[C@]1(O)C[C@@H](c2nc(-c3ccc4ccc(-c5ccccc5)nc4c3)c3c(N)nccn32)C1 [Linsitinib] (partner 1 µM)
Outline: as §1

[3] = compound: C#Cc1cccc(Nc2ncnc3cc(OC)c(OCCCCCCC(=O)NO)cc23)c1 [CUDC-101] + O=C(CCCCCCC(=O)Nc1ccccc1)NO [Vorinostat] (partner 1 µM)
Outline: as §1

[4] = compound: COc1cc2/c(=N/c3ccc(Br)cc3F)nc[nH]c2cc1OCC1CCN(C)CC1 [Vandetanib] + Cc1cc(Nc2cc(N3CCN(C)CC3)nc(Sc3ccc(NC(=O)C4CC4)cc3)n2)n[nH]1 [Tozasertib] (partner 0.1 µM)
Outline: as §1

Cell Line | relative viability ([1]; first compound 0.01 µM) | relative viability ([1]; first compound 0.03162 µM) | relative viability ([1]; first compound 0.1 µM) | relative viability ([1]; first compound 0.3162 µM) | relative viability ([1]; first compound 1 µM) | relative viability ([2]; first compound 0.2 µM) | relative viability ([2]; first compound 0.6325 µM) | relative viability ([2]; first compound 2 µM) | relative viability ([3]; first compound 0.01 µM) | relative viability ([3]; first compound 0.03162 µM) | relative viability ([3]; first compound 0.1 µM) | relative viability ([3]; first compound 0.3162 µM) | relative viability ([3]; first compound 1 µM) | relative viability ([4]; first compound 0.02 µM) | relative viability ([4]; first compound 0.06325 µM) | relative viability ([4]; first compound 0.2 µM) | relative viability ([4]; first compound 0.6325 µM) | relative viability ([4]; first compound 2 µM)
NCI-H322M | 0.789 | 0.674 | 0.771 | 0.692 | 0.594 | 0.805 | 0.862 | 0.872 | 0.858 | 0.81 | 0.799 | 0.596 | 0.494 | 0.52 | 0.454 | 0.521 | 0.465 | 0.291
NCI-H358 | 0.641 | 0.625 | 0.66 | 0.543 | 0.408 | 0.73 | 0.488 | 0.274 | 0.697 | 0.733 | 0.695 | 0.447 | 0.128 | 0.111 | 0.106 | 0.104 | 0.0913 | 0.102
NCI-H441 | 0.628 | 0.556 | 0.679 | 0.572 | 0.479 | 0.521 | 0.627 | 0.472 | 0.968 | 0.915 | 0.784 | 0.937 | 0.618 | 0.744 | 0.668 | 0.283 | 0.853 | 0.768
NCI-H460 | 0.458 | 0.42 | 0.428 | 0.465 | 0.349 | 0.732 | 0.911 | 0.298 | 0.679 | 0.73 | 0.695 | 0.597 | 0.409 | 0.399 | 0.432 | 0.371 | 0.391 | 0.457
NCI-H520 | 0.298 | 0.325 | 0.305 | 0.298 | 0.194 | 0.911 | 0.986 | 0.45 | 0.769 | 0.686 | 0.488 | 0.397 | 0.32 | 0.437 | 0.414 | 0.482 | 0.432 | 0.501
NCI-H596 | 0.616 | 0.597 | 0.718 | 0.689 | 0.67 | 1.06 | – | 0.688 | 0.569 | 0.605 | 0.501 | 0.735 | 0.501 | 0.922 | 0.706 | 0.688 | 1.03 | 0.898
NCI-H647 | 0.547 | 0.522 | 0.67 | 0.554 | 0.342 | 1.49 | 1.09 | 0.522 | 0.479 | 0.465 | 0.664 | 0.427 | 0.262 | 0.265 | 0.2 | 0.141 | 0.221 | 0.255
NCI-H650 | 0.393 | 0.377 | 0.337 | 0.299 | 0.185 | 0.982 | 0.638 | 0.652 | 0.547 | 0.517 | 0.414 | 0.456 | 0.51 | 0.732 | 0.69 | – | 0.809 | 0.723
NCI-H661 | 0.795 | 0.69 | 0.632 | 0.611 | 0.437 | 0.454 | 0.58 | 0.625 | 0.783 | 0.764 | 0.748 | 0.534 | 0.362 | 0.345 | 0.345 | 0.315 | 0.364 | 0.368
NCI-H727 | 0.797 | 0.623 | 0.708 | 0.699 | 0.461 | 0.331 | 0.284 | 0.216 | 1.28 | 1.15 | 0.958 | 1.04 | 0.642 | 0.689 | 0.498 | 0.504 | 0.529 | 0.488
NCI-H838 | 0.802 | 0.784 | 0.807 | 0.649 | 0.489 | 1.22 | 0.955 | 0.372 | 0.719 | 0.741 | 0.708 | 0.555 | 0.372 | 0.264 | 0.273 | 0.193 | 0.253 | 0.229
NCI-H1355 | 0.756 | 0.711 | 0.726 | 0.693 | 0.585 | 0.724 | 0.826 | 0.535 | 0.693 | 0.663 | 0.636 | 0.62 | 0.497 | 0.614 | 0.519 | 0.562 | 0.494 | 0.516
NCI-H1395 | 0.472 | 0.558 | 0.447 | 0.435 | 0.405 | 1.3 | 0.766 | 0.862 | 0.81 | 0.753 | 0.797 | 0.661 | 0.489 | 0.752 | 0.753 | 0.845 | 0.837 | 0.723
NCI-H1437 | 0.676 | 0.649 | 0.642 | 0.605 | 0.537 | 1.01 | 1.02 | 0.545 | 0.864 | 0.857 | 0.814 | 0.808 | 0.495 | 0.408 | 0.402 | 0.134 | 0.402 | 0.389
NCI-H1651 | 0.194 | 0.209 | 0.192 | 0.2 | 0.182 | 1.02 | 0.98 | 0.935 | 0.539 | 0.545 | 0.578 | 0.51 | 0.497 | 0.68 | 0.688 | 0.14 | 0.854 | 0.686
NCI-H1666 | 0.777 | 0.741 | 0.717 | 0.751 | 0.713 | 0.828 | 0.605 | 0.591 | 1.1 | 1.01 | 0.951 | 1.06 | 1.06 | 0.606 | 0.581 | 0.387 | 0.577 | 0.633
